Test results published in US5063225A, “Benzothiazepines” (Roussel Uclaf, priority 1989, dated 1991).
Where a name gives a salt, the structure may show the parent alone. Read-outs that look alike come from different tables or passages of the source.

How the values were obtained:
mouse = assay: Study of the acute toxicity; assay type: in vivo; settings: single administration
Procedure: 4) Study of the Acute Toxicity
The lethal doses LD of the various compounds under test were evaluated after a single administration intraperitoneally or orally to a mouse.

[1] = system: ventricular extrasystoles initiated by aconitine in rats; assay: Anti-arhythmic action in the rat (aconitine-induced ventricular extrasystoles); assay type: in vivo; settings: relative to control animals
Procedure: 1) Anti-arhythmic action in the rat
Male rats weighing 300-350 g, anaesthetized by intraperitoneal route using 1.20 g/kg of urethane, were tracheotomized and subjected to artificial respiration (40-50 insufflations of 3 ml/minute). Needles were implanted subcutaneously to record the electro-cardiogram of the rats on the signal in the DII derivation. The products under test were administered by intravenous route or by oral route. After five minutes in the case of administration intravenously and one hour in the case of oral administration, the jugular vein of the rats was perfused with 10 micrograms/min. under 0.2 ml of an aconitine solution. The time taken for the first ventricular extrasystoles to appear was noted and the amount of aconitine perfused was calculated, then expressed as a function of the body weight of the animal.
The percentage of increase of the aconitine dose necessary to initiate the ventricular extrasystoles after treatment was calculated relative to the control animals.

[2] = system: broncho-constriction induced by serotonin; assay: Anti-serotoninergic activity: broncho-constriction in a guinea-pig induced by serotonin; assay type: in vivo; settings: 1 mg/kg injected via jugular vein one minute before serotonin (3 to 5 micrograms/kg IV)
Procedure: 3) Test for Anti-Serotoninergic Activity Broncho-constriction in a guinea-pig induced by serotonin. The pulmonary resistance to insufflation was measured by the technique of "overflow" according to KONZETT et al [Arch. Ex. Pathol. Pharmakol, 1940, Vol. 195, p. 71]. The guinea-pigs were anaesthetized with urethane and the jugular vein was catherized to inject the products, and the trachea was catheterized to insert artificial ventilation. Broncho-constriction was induced by a dose of 3 to 5 micrograms/kg of serotonin injected intravenously and the antagonists were injected one minute before the induction of the broncho-spasm. It can be noted from the results of the table below that the products of the present Application have a strong anti-serontoninergic activity.

[3] = system: blood-platelets (rabbit PRP); assay: Blood-platelet aggregation, in vitro, on plasma rich in blood-platelets (PRP); assay type: cell-based; settings: Oryctolagus cuniculus, 2 min, 2 minutes incubation, read-out: IC50 (concentration inhibiting the aggregation by 50%)
From the text: 2) Test for the Activity of Anti-Aggregation of Blood-Platelets. Blood-Platelet Aggregation, In Vitro, on Plasma Rich in Blood-Platelets (PRP)
Measurement of blood-platelet aggregation was made by the turbidimetric method of Born et al 1963, J. Physiol., Vol. 168, p. 178. Rabbit's blood was removed on Na citrate at 3.2% by cardiac puncture and the plasma rich in blood-platelets was obtained by centrifuging and adjustment of the number of blood-platelets to 300,000 per microliter. The aggregation was induced by collagen (40 micrograms per ml of PRP) or PAF acether (0.05 micromoles per liter of PRP). The compounds under test were incubated at different concentrations in the PRP 2 minutes before the aggregating agent. The results were expressed in IC50 (concentration inhibiting the aggregation by 50% relative to the control curves).

[4] = IV, 5 mg/kg, five minutes before aconitine
[5] = oral (O), 25 mg/kg, one hour before aconitine
[6] = induction by PAF-ACETHER (0.05 micromoles per liter of PRP)
[7] = induction by collagen (40 micrograms per ml of PRP)

COc1ccc(C2CSc3ccccc3N(CCN3CCN(C)CC3)C2=O)cc1 (stereo not shown) [Example 7, 2,3-dihydro-3-(4-methoxyphenyl)-5-[2-(4-methyl-1-piperazinyl)-ethyl]-1,5-benzothiazepin-4(5H)-one dichlorhydrate]
LD0 (maximum dose which did not cause any deaths over 8 days) (mouse; IP): 100 mg/kg | LD0 (maximum dose which did not cause any deaths over 8 days) (mouse; oral (O)): 100 mg/kg | Percentage of increase of the aconitine dose for initiating the extrasystoles [1, 4]: 25% | Percentage of increase of the aconitine dose for initiating the extrasystoles [1, 5]: 129%

COc1ccc(C2CSc3ccccc3N(CCN(C)C)C2=O)cc1 (stereo not shown) [Example 13, 2,3-dihydro-5-8 2-(dimethylamino)-ethyl]-3-(4-methoxy phenyl)-1,5-benzothiazepin-4(5H)-one (E)-2-butenedioate]
LD0 (maximum dose which did not cause any deaths over 8 days) (mouse; IP): 80 mg/kg | LD0 (maximum dose which did not cause any deaths over 8 days) (mouse; oral (O)): > 200 mg/kg | Percentage of increase of the aconitine dose for initiating the extrasystoles [1, 4]: 24% | Percentage of increase of the aconitine dose for initiating the extrasystoles [1, 5]: 35% | Percentage of inhibition of the broncho-constriction [2]: 87%

COc1ccc(C2CSc3ccccc3N(CCN(C(C)C)C(C)C)C2=O)cc1 (racemic) [Example 9, (±)-5-[2-[[bis(1-methylethyl)]-amino]-ethyl]-2,3-dihydro-3-(4-methoxyphenyl)-1,5-benzothiazepin-4(5H)-one hydrochloride]
IC50 [3, 6]: 58 µM | IC50 [3, 7]: 66 µM

CCN(CC)CCN1C(=O)C(c2ccc(OC)cc2)CSc2ccccc21.O=C(O)C(=O)O (stereo not shown) [Example 5, 5-[2-(diethylamino)-ethyl]-2,3-dihydro-3-(4-methoxyphenyl)-1,5-benzothiazepin-4(5H)-one ethanedioate]
Percentage of inhibition of the broncho-constriction [2]: 87%

COc1ccc(C2CSc3ccccc3N(CCN3CCCC3)C2=O)cc1 (stereo not shown) [Example 1, 2,3-dihydro-3-(4-methoxy-phenyl)-5-[2-(1-pyrrolidinyl)-ethyl]-1,5-benzothiazepin-4(5H)-one (Z)-2-butenedioate]
Percentage of inhibition of the broncho-constriction [2]: 79% | IC50 [3, 6]: 78 µM | IC50 [3, 7]: 74 µM

COc1ccc(C2CSc3ccccc3N(CCCN(C)C)C2=O)cc1 (stereo not shown) [Example 6, 2,3-dihydro-5-[3-(dimethylamino)-propyl]-3-(4-methoxyphenyl)-1,5-benzothiazepin-4(5H)-one (E)-butenedioate]
LD0 (maximum dose which did not cause any deaths over 8 days) (mouse; IP): 100 mg/kg | LD0 (maximum dose which did not cause any deaths over 8 days) (mouse; oral (O)): 100 mg/kg | Percentage of increase of the aconitine dose for initiating the extrasystoles [1, 4]: 142% | Percentage of increase of the aconitine dose for initiating the extrasystoles [1, 5]: > 188%

COc1ccccc1C1CSc2ccccc2N(CCN(C)C)C1=O.Cl (stereo not shown) [Example 12, 2,3-dihydro-5-[2-(dimethylamino)-ethyl]-3-(2-methoxy-phenyl)-1,5-benzothiazepin-4(5H)-one hydrochloride]
LD0 (maximum dose which did not cause any deaths over 8 days) (mouse; IP): 100 mg/kg | LD0 (maximum dose which did not cause any deaths over 8 days) (mouse; oral (O)): > 200 mg/kg | Percentage of inhibition of the broncho-constriction [2]: 64% | IC50 [3, 6]: 9 µM | IC50 [3, 7]: 56 µM

CN(C)CCN1C(=O)C(c2ccc(Cl)cc2)CSc2ccccc21.Cl (stereo not shown) [Example 11, 3-(4-chloro-phenyl)-2,3-dihydro-5-[2-(dimethylamino)-ethyl]-1,5-benzothiazepin-4(5H)-one hydrochloride]
LD0 (maximum dose which did not cause any deaths over 8 days) (mouse; IP): 80 mg/kg | LD0 (maximum dose which did not cause any deaths over 8 days) (mouse; oral (O)): 100 mg/kg | Percentage of increase of the aconitine dose for initiating the extrasystoles [1, 4]: 32% | Percentage of increase of the aconitine dose for initiating the extrasystoles [1, 5]: 135% | Percentage of inhibition of the broncho-constriction [2]: 82% | IC50 [3, 6]: 40 µM | IC50 [3, 7]: 8 µM
